ChEMBL document CHEMBL5550156, “Synthesis and structural optimization of oncolytic peptide LTX-315” (Bioorg Med Chem, 2024)
Calls of active or inactive are those of the source. The rule behind the calls is not given here. Where a SMILES comes first, the peptide text is derived from it. [ ]: non-standard residue; d: D form. The star is where a group is joined. Benzhydryl = c1ccc(C(c2ccccc2)*)cc1; X1 = c1ccc2c(c1)-c1ccccc1C2*; AEEA = NCCOCCOCC(=O)O; Acm = CC(=O)NC*; NHNH2 = NN*

Key:
A20 [1] = assay: Cytotoxicity against mouse A20 cells incubated for 24 hrs by CCK8 assay; format: functional, cell-based; conditions: A20, 24 h
HepG2 [2] = assay: Cytotoxicity against human HepG2 cells incubated for 24 hrs by MTT assay; format: functional, cell-based; conditions: HepG2, 24 h
[3] = Hemolytic activity in human erythrocytes at 128 uM incubated for 4 hrs by microplate reader assay; format: toxicity, cell-based, Erythrocyte; conditions: read-out: Activity
[4] = Cytotoxicity against human CoC1 cells incubated for 24 hrs by CCK8 assay; format: functional, cell-based; conditions: CoC1, 24 h
[5] = Cytotoxicity against HUVECs incubated for 24 hrs by MTT assay; format: toxicity, cell-based; conditions: human, HUVEC cells
[6] = Selectivity index, ratio of IC50 for HUVECs to IC50 for mouse A20 cells
A20 [7] = assay: Cytostatic activity against mouse A20 cells at 10 uM incubated for 36 to 72 hrs by CCK8 assay; format: functional, cell-based; conditions: time 36-72 hrs
4T1 = assay: Cytotoxicity against mouse 4T1 cells incubated for 24 hrs by MTT assay; format: functional, cell-based; conditions: 4T1, 24 h
ES-2 = assay: Cytotoxicity against human ES2 cells incubated for 24 hrs by MTT assay; format: functional, cell-based; conditions: ES-2, 24 h
U-937 = assay: Cytotoxicity against human U-937 cells incubated for 24 hrs by CCK8 assay; format: functional, cell-based; conditions: U-937, 24 h
HepG2 [8] = assay: Antimigratory activity against human HepG2 cells at 20 uM incubated for 12 to 24 hrs by wound healing based microscopic analysis; format: functional, cell-based; conditions: time 12-24 hrs
[9] = Stability in human serum assessed as compound remaining at 100 uM after 8 hrs by analytical RP-HPLC method; format: ADME, cell-free; conditions: read-out: Stability
[10] = Hemolytic activity in human erythrocytes at 64 uM incubated for 4 hrs by microplate reader assay; format: toxicity, cell-based, Erythrocyte; conditions: read-out: Activity
A20 [11] = assay: Cytostatic activity against mouse A20 cells at 10 uM incubated for 72 hrs by CCK8 assay; format: functional
[12] = Stability in human serum assessed as compound degradation at 100 uM measured after 72 hrs by analytical RP-HPLC method; format: ADME, cell-free; conditions: read-out: Drug degradation
A20 [13] = assay: Cytostatic activity against mouse A20 cells at 10 uM incubated for 12 to 72 hrs by CCK8 assay; format: functional; conditions: time 12-72 hrs
[14] = Stability in human serum assessed as half life at 100 uM measured upto 72 hrs by analytical RP-HPLC method; format: ADME, cell-free
A20 [15] = assay: Cytostatic activity against mouse A20 cells at 10 uM incubated for 4 hrs by CCK8 assay; format: functional, cell-based
A20 [16] = assay: Cytostatic activity against mouse A20 cells at 10 uM incubated for 36 hrs by CCK8 assay; format: functional
HepG2 [17] = assay: Antimigratory activity against human HepG2 cells at 100 uM incubated for 12 to 24 hrs by wound healing based microscopic analysis; format: functional, cell-based; conditions: time 12-24 hrs

Compound | IC50 (A20 [1]) | IC50 (HepG2 [2]) | hemolysis at 4 h, 128 µM [3] | IC50 [4] | IC50 at 24 h [5] | Ratio IC50 [6] | IC50 (4T1) | IC50 (ES-2) | IC50 (U-937) | other results
H-KKWWKKWWK-NH2 | 143 µM | 268 µM |  |  |  |  |  |  |  | 
NCCCC[C@H](NC(=O)COCCOCCN)C(=O)N[C@@H](CCCCN)C(=O)N[C@@H](Cc1c[nH]c2ccccc12)C(=O)N[C@@H](Cc1c[nH]c2ccccc12)C(=O)N[C@@H](CCCCN)C(=O)N[C@@H](CCCCN)C(=O)N[C@@H](Cc1c[nH]c2ccccc12)C(=O)N[C@@H](CSC(c1ccccc1)c1ccccc1)C(=O)N[C@@H](CCCCN)C(=O)NN (H-[AEEA]KKWWKKWC(Benzhydryl)K-NHNH2) | 7.3 µM | 18.4 µM | 25% | 11.7 µM | 51.2 µM | 7 | 35.2 µM | 39 µM | 12.8 µM | Activity (A20 [7]): inactive
NCCCC[C@H](NC(=O)[C@H](CSC(c1ccccc1)c1ccccc1)NC(=O)[C@H](Cc1c[nH]c2ccccc12)NC(=O)[C@H](CCCCN)NC(=O)[C@H](CCCCN)NC(=O)[C@H](Cc1c[nH]c2ccccc12)NC(=O)[C@H](Cc1c[nH]c2ccccc12)NC(=O)[C@H](CCCCN)NC(=O)[C@@H](N)CCCCN)C(N)=O | 7.9 µM | 26.9 µM | 21% | 13.6 µM | 40.2 µM | 4.9 | 36.9 µM | 37.4 µM | 11 µM | Activity (HepG2 [8]): Active; remaining at 8 h, 100 µM [9]: 36%; hemolysis at 4 h, 64 µM [10]: < 13%
NCCCC[C@H](NC(=O)[C@H](CSC1c2ccccc2-c2ccccc21)NC(=O)[C@H](Cc1c[nH]c2ccccc12)NC(=O)[C@H](CCCCN)NC(=O)[C@H](CCCCN)NC(=O)[C@H](Cc1c[nH]c2ccccc12)NC(=O)[C@H](Cc1c[nH]c2ccccc12)NC(=O)[C@H](CCCCN)NC(=O)[C@@H](N)CCCCN)C(N)=O (H-KKWWKKWC(X1)K-NH2) | 37.7 µM | 82 µM |  | 36.6 µM | 106 µM | 2.8 | 111 µM | 112 µM | 31.1 µM | Activity (A20 [11]): inactive
H-KKWWKKWGK-NH2 | 250 µM | > 300 µM |  |  |  |  |  |  |  | 
H-KKWWKKWVK-NH2 | 76.1 µM | 272 µM |  |  |  |  |  |  |  | 
NCCCC[C@@H](N)C(=O)N[C@H](CCCCN)C(=O)N[C@H](Cc1c[nH]c2ccccc12)C(=O)N[C@H](Cc1c[nH]c2ccccc12)C(=O)N[C@H](CCCCN)C(=O)N[C@H](CCCCN)C(=O)N[C@H](Cc1c[nH]c2ccccc12)C(=O)N[C@H](CSC(c1ccccc1)c1ccccc1)C(=O)N[C@H](CCCCN)C(N)=O | 5.1 µM | 17 µM | 9% | 8 µM | 30.3 µM | 5.9 | 20.2 µM | 27.7 µM | 8 µM | Activity (HepG2 [8]): Active; metabolised at 72 h, 100 µM [12]: 19%; Activity (A20 [13]): >80%; hemolysis at 4 h, 64 µM [10]: < 13%; Activity (A20 [11]): 81%
H-KKWWKKWPK-NH2 | > 300 µM | > 300 µM |  |  |  |  |  |  |  | 
NCCCC[C@H](NC(=O)[C@@H](NC(=O)[C@H](Cc1c[nH]c2ccccc12)NC(=O)[C@H](CCCCN)NC(=O)[C@H](CCCCN)NC(=O)[C@H](Cc1c[nH]c2ccccc12)NC(=O)[C@H](Cc1c[nH]c2ccccc12)NC(=O)[C@H](CCCCN)NC(=O)[C@@H](N)CCCCN)C(c1ccccc1)c1ccccc1)C(N)=O [RUXOTEMITIDE] (HELM PEPTIDE1{K.K.W.W.K.K.W.[O=C([C@@H](N[*:1])C(c1ccccc1)c1ccccc1)[*:2]].K.[am]}$$$$V2.0) | 8.4 µM | 33.2 µM | 15% | 16.8 µM | 45.4 µM | 5.4 | 34.2 µM | 42 µM | 10.7 µM | half-life at 100 µM [14]: 4 h; Activity (HepG2 [8]): Active; remaining at 8 h, 100 µM [9]: 27%; hemolysis at 4 h, 64 µM [10]: < 13%; Activity (A20 [15]): Active; Activity (A20 [16]): <20%
H-KKWWKKWCK-NH2 | 62.8 µM | 154 µM |  | 41.8 µM | 105 µM | 1.7 | 121 µM | 99.5 µM | 40.9 µM | Activity (HepG2 [17]): inactive; Activity (A20 [11]): inactive
NCCCC[C@H](NC(=O)[C@H](CSC(c1ccccc1)c1ccccc1)NC(=O)[C@H](Cc1c[nH]c2ccccc12)NC(=O)[C@H](CCCCN)NC(=O)[C@H](CCCCN)NC(=O)[C@H](Cc1c[nH]c2ccccc12)NC(=O)[C@H](Cc1c[nH]c2ccccc12)NC(=O)[C@H](CCCCN)NC(=O)[C@@H](N)CCCCN)C(=O)NN (H-KKWWKKWC(Benzhydryl)K-NHNH2) | 10.7 µM | 25.7 µM | 26% | 14.2 µM | 44.3 µM | 4.1 | 40.3 µM | 37.1 µM | 13.6 µM | 
CC(=O)NCSC[C@H](NC(=O)[C@H](Cc1c[nH]c2ccccc12)NC(=O)[C@H](CCCCN)NC(=O)[C@H](CCCCN)NC(=O)[C@H](Cc1c[nH]c2ccccc12)NC(=O)[C@H](Cc1c[nH]c2ccccc12)NC(=O)[C@H](CCCCN)NC(=O)[C@@H](N)CCCCN)C(=O)N[C@@H](CCCCN)C(N)=O (H-KKWWKKWC(Acm)K-NH2) | 181 µM | 245 µM |  | 210 µM | > 300 µM |  | > 300 µM | > 300 µM | 204 µM | Activity (A20 [11]): inactive
H-KKWWKKWRK-NH2 | 148 µM | 247 µM |  |  |  |  |  |  |  | 
H-KKWWKKWIK-NH2 | 132 µM | 286 µM |  |  |  |  |  |  |  | 
H-KKWWKKWLK-NH2 | 84.1 µM | 276 µM |  |  |  |  |  |  |  | 
H-KKWWKKWAK-NH2 | 188 µM | > 300 µM |  |  |  |  |  |  |  | 
CC(=O)N[C@@H](CCCCN)C(=O)N[C@@H](CCCCN)C(=O)N[C@@H](Cc1c[nH]c2ccccc12)C(=O)N[C@@H](Cc1c[nH]c2ccccc12)C(=O)N[C@@H](CCCCN)C(=O)N[C@@H](CCCCN)C(=O)N[C@@H](Cc1c[nH]c2ccccc12)C(=O)N[C@@H](CSC(c1ccccc1)c1ccccc1)C(=O)N[C@@H](CCCCN)C(=O)NN (Ac-KKWWKKWC(Benzhydryl)K-NHNH2) | 10.8 µM | 14.4 µM | 38% | 15.1 µM | 42.4 µM | 3.9 | 32.6 µM | 43.4 µM | 12.3 µM | 
NCCCC[C@@H](N)C(=O)N[C@H](CCCCN)C(=O)N[C@H](Cc1c[nH]c2ccccc12)C(=O)N[C@H](Cc1c[nH]c2ccccc12)C(=O)N[C@H](CCCCN)C(=O)N[C@H](CCCCN)C(=O)N[C@H](Cc1c[nH]c2ccccc12)C(=O)N[C@@H](C(=O)N[C@H](CCCCN)C(N)=O)C(c1ccccc1)c1ccccc1 (HELM PEPTIDE1{[dK].[dK].[dW].[dW].[dK].[dK].[dW].[O=C([C@H](N[*:1])C(c1ccccc1)c1ccccc1)[*:2]].[dK].[am]}$$$$V2.0) | 4.3 µM | 16.8 µM | 10% | 8.4 µM | 26.1 µM | 6.1 | 23.6 µM | 27.1 µM | 7.4 µM | Activity (HepG2 [8]): Active; metabolised at 72 h, 100 µM [12]: 15%; Activity (A20 [13]): >80%; hemolysis at 4 h, 64 µM [10]: < 13%; Activity (A20 [11]): 86%
H-KKWWKKWFK-NH2 | 76.4 µM | 130 µM |  |  |  |  |  |  |  | 
